Measured values reported in US10611778B2, “Fused bicyclic inhibitors of menin-MLL interaction” (Janssen Pharmaceutica NV, priority 2016, dated 2020).
Values joined by “and” are separate entries in the source; they are usually repeats but may differ in a detail not shown here. Identical values can stand only once. Like-named read-outs stand apart in the source and are kept apart here.

Tests used:
[1] = tested on: MV-4-11; experiment: Proliferation assay (spheroid assay) MV-4-11; type: cell-based, human
How it was run: (§1)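 Cells were grown as spheroids in ultra-low attachment round-bottom wells with compound (0.3% DMSO) for 8 d at 37 °C, imaged every 4 h, with confluence as spheroid size. AUC of confluence versus time (t=0 baseline) was expressed as % of DMSO control, and absolute IC50 came from a least-squares nonlinear fit.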

[2] = target: T1, Menin/MLL (menin, FITC-MBM1 peptide) (Homo sapiens, UniProt O00255, T541A); experiment: Menin/MLL fluorescence polarization (FP) assay; type: binding
T1 construct: 6xHis (C)
T1 sequence (O00255 with tags, fused parts or gaps T541A): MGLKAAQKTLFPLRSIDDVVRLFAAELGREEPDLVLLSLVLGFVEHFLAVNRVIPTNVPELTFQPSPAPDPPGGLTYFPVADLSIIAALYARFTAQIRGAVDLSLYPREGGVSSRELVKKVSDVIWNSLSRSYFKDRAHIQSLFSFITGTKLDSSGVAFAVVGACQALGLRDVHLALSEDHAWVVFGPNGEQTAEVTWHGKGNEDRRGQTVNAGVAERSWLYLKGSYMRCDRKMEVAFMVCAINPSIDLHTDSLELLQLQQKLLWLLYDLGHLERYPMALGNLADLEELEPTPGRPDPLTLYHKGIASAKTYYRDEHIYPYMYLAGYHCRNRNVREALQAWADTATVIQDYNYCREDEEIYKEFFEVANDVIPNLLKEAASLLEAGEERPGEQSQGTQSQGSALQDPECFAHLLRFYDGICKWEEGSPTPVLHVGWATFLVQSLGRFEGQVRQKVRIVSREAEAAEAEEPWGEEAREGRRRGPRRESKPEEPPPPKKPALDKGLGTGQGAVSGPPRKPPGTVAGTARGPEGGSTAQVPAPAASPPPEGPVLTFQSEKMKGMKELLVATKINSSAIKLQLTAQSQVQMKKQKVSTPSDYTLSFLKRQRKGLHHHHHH
How it was run: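 Compound pre-incubated 10 min with 100 nM menin (40 mM Tris-HCl pH 7.5, 50 mM NaCl, 1 mM DTT, 0.001% Tween 20), then 5 nM FITC-MBM1 peptide added for 15 min at ambient temperature; 0.625% DMSO final. FP read at ex 485/em 520 nm. IC50 from 11-point three-fold dilutions from 31 μM, % inhibition vs saturating-competitor controls.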

[3] = tested on: MOLM14; experiment: Proliferation assay (spheroid assay) MOLM14; type: cell-based, human
How it was run: as §1

[4] = tested on: K562; experiment: Proliferation assay (spheroid assay) K562 control cell line; type: cell-based; details: Homo sapiens
Description: The anti-proliferative effect of menin/MLL protein/protein interaction inhibitor test compounds was assessed in human leukemia cell lines. The cell lines MV-4-11 and MOLM14 harbor MLL translocations and express the MLL fusion proteins MLL-AF4 and MLL-AF9, respectively, as well as the wildtype protein from the second allele. […] K562 and KG1 were used as a control cell lines containing two MLL wildtype alleles in order to exclude compounds that display general cytotoxic effects.
MV-4-11 and MOLM14 were cultured in RPMI-1640 (Sigma Aldrich) supplemented with 10% fetal bovine serum (HyClone), 2 mM L-glutamine (Sigma Aldrich) and 50 μg/ml gentamycin (Gibco). K562 were propagated in RPMI-1640 (Sigma Aldrich) supplemented with 20% fetal bovine serum (HyClone), 2 mM L-glutamine (Sigma Aldrich) and 50 μg/ml gentamycin (Gibco). KG1 were cultured in Iscove's MDM (Gibco) supplemented with 20% fetal bovine serum (HyClone), 2 mM L-glutamine (Sigma Aldrich) and 50 μg/ml gentamycin (Gibco).
In order to assess the anti-proliferative effects, 1,500 MV-4-11, 300 MOLM14, 750 K562 or 1,300 KG1 cells were seeded in 200 μl media per well in 96-well round bottom, ultra-low attachment plates (Costar, catalogue number 7007). Cell seeding numbers were chosen based on growth curves to ensure linear growth throughout the experiment. Test compounds were added at different concentrations and the DMSO content was normalized to 0.3%. Cells were incubated for 8 d at 37° C. and 5% CO2. Spheroid like growth was monitored in real-time by live-cell imaging (IncuCyteZOOM, Essenbio, 4× objective) acquiring one image every four hours for 8 d. Confluence (%) as a measure of spheroid size was determined using an integrated analysis tool.
In order to determine the cumulative effect of the test compounds over time, the area under the curve (AUC) in a plot of confluence against time was calculated. Confluence at the beginning of the experiment (t=0) was used as baseline for the AUC calculation.
Absolute IC50 values were calculated according to the following procedure: % Control=(AUC sample/AUC control)*100
AUC control=mean AUC of control values (cells without compound/DMSO as vehicle control)
A non-linear curve fit was applied using the least squares (ordinary) fit method to the plot of % control versus compound concentration. Based on this, the absolute IC50 value (half maximal inhibitory concentration of the test compound causing an anti-proliferative effect of 50% relative to the vehicle control) was calculated.

[5] = Homo sapiens, MV4-11, MV-4-11, averaged values over all measurements, read-out: Spheroid assay MV-4-11 (IC50)
[6] = averaged values over all measurements, read-out: Menin FP assay (IC50)
[7] = Homo sapiens, MOLM-14, MOLM14, averaged values over all measurements, read-out: Spheroid assay MOLM14 (IC50)
[8] = K562 control cell line, averaged values over all measurements, read-out: Spheroid assay K562 (IC50)

IC50 [1, 5] | IC50 [2, 6] | IC50 [3, 7] | IC50 [4, 8] | IC50 ([1]; Homo sapiens, MV4-11, 192 h, MV-4-11, 8 d, individual measurements (not averaged), read-out: (2) Spheroid assay MV-4-11 (IC50 (μM))) | IC50 ([1]; MV-4-11, 8 d, individual measurements (not averaged), read-out: (2) Spheroid assay MV-4-11 (IC50 (μM))) | IC50 ([2]; individual measurements (not averaged), read-out: (1) Menin FP assay (IC50 (μM))) | IC50 ([3]; MOLM14, 8 d, individual measurements (not averaged), read-out: (2) Spheroid assay MOLM14 (IC50 (μM))) | IC50 ([4]; 192 h, K562, 8 d, individual measurements (not averaged), read-out: (2) Spheroid assay K562 (IC50 (μM))) | Compound
1.4 µM | 0.21 µM | 3.3 µM | 9 µM |  |  |  |  |  | Fc1ccccc1CN1CC[C@H]2CN(c3ncnc4sc(CC(F)(F)F)cc34)CC[C@H]21 (single isomer, unassigned) [Compound 6]
 |  |  |  | 2.1 µM | 2.3 µM | 0.101 µM | 5.7 µM and > 15 µM | > 15 µM | FC(F)(F)Cc1cc2c(N3CC[C@H]4[C@H](CCN4Cc4ccc[nH]4)C3)ncnc2s1 (single isomer, unassigned) [Compound 8]
1.5 µM | 0.033 µM | 4.4 µM | 13.1 µM |  |  |  |  |  | FC(F)(F)Cc1cc2c(N3CCC4C(CCN4Cc4ccccc4)C3)ncnc2s1 (centres unmarked) [Compound 1]
7.3 µM | 0.34 µM | 9.8 µM | > 15 µM |  |  |  |  |  | FC(F)(F)Cc1cc2c(N3CCC4C3CCN4Cc3ccccc3)ncnc2s1 (centres unmarked) [Compound 2]
